SMILES strings stand for the structures. Where two headings read alike, the source gives them in different places.

The values that follow come from US20240239738A1, “(S)-3-AMINO-4-(DIFLUOROMETHYLENE)CYCLOHEXENE AND CYCLOHEXANE CARBOXYLIC ACID AND USES THEREOF AS SELECTIVE INACTIVATORS OF HUMAN ORNITHINE AMINOTRANSFERASE (hOAT)” (Northwestern University, priority 2021, published 2024).

For series [1], the target named is T1, hOAT (Homo sapiens, UniProt P04181).
T1 construct: made in house
T1 sequence (P04181 with tags, fused parts or gaps): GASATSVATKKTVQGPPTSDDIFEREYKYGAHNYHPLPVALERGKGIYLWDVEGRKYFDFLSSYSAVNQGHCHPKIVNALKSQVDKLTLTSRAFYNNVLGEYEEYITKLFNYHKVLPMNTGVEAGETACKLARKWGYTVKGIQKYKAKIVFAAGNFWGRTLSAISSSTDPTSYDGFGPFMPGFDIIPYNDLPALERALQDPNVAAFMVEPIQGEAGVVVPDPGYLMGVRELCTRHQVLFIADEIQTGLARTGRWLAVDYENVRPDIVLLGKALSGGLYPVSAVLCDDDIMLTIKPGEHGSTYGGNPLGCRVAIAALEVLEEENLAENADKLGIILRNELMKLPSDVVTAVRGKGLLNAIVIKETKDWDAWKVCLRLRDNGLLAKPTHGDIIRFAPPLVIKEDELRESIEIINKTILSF
The experiment in a line: Time-dependent dialysis (reactivation) of inhibited hOAT. The series is classed as biochemical. The note with it: hOAT partially or fully inhibited (0.6-2.0 equivalents of 14); up to 91 h of dialysis. Here is the method:
Previously, five-membered ring analogs 5 and 9 were identified as partially irreversible inhibitors of GABA-AT, with the formation of the tight-binding adducts.^29-30 Thus, time-dependent reactivation experiments of hOAT for cyclohexene analog 14 were carried out to determine if similar reversible components were also involved during the inactivation. After hOAT activity was partially or fully abolished by 0.6-2.0 equivalents of 14, aliquots at different time intervals were collected and assayed for the return of enzyme activity.
The dialysis experiment was conducted using previous protocols.^6, 8-9

A short description of the next series: in vivo PK profiles. The note with it: for Cmax: read-out: C0/Cmax; for Kp at 0.25 h: read-out: B/P ratio @0.25 h.
For series [2], the target named is T1, hOAT. The note with it: cited from earlier work.
For the next series, the target named is T2, GABA-AT (Sus scrofa, UniProt P80147).
T2 construct: GABA-AT was isolated from pig brains and purified according to a literature procedure; from tissue; host or cells: pig brain
T2 sequence (P80147 29-500): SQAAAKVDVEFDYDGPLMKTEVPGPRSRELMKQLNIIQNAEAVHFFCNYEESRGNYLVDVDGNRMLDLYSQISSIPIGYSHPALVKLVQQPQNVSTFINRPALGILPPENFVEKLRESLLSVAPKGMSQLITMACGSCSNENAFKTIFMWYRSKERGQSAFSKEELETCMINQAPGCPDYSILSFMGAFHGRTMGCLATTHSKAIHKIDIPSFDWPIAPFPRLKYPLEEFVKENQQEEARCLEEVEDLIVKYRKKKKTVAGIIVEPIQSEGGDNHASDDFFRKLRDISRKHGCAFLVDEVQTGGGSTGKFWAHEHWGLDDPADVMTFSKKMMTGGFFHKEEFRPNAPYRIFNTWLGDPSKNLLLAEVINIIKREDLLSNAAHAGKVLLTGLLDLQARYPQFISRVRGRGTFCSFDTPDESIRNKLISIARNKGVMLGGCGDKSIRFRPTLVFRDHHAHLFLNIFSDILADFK
Description: Coupled enzyme assay, time-dependent inactivation of GABA-AT. The series is classed as biochemical, pig. Here is the method: (§1) hOAT and PYCR1 were expressed, grown, and purified according to literature procedures.^3-4 GABA-AT was isolated from pig brains and purified according to a literature procedure.^5 Coupled enzyme assays for GABA-AT, hOAT, Ala-AT, and Asp-AT were carried out according to previous procedures.^6-7

Series [3] deals with T1, hOAT. Description: Coupled enzyme assay, time-dependent inactivation of hOAT. The series is classed as biochemical. The note with it: for Ki / kinact / kinact/KI: hOAT. On the procedure:
as §1

Series [4] concerns the target T1, hOAT. The experiment in a line: Partition ratio by titrating hOAT with inactivator. The series is classed as biochemical. The note with it: turnover number minus one. An excerpt: Usually, the partition ratio is used to determine the ratio of degradation and inactivation, calculated by titrating the enzyme with varying equivalents of inactivator. Ideally, a linear relationship (between enzyme activity remaining and equivalents of compounds) can be extrapolated to yield the exact equivalents (the intercept with the x-axis, turnover number) required to inactivate the enzyme completely. Since this obtained number includes the one molecule of inactivator required to inactivate one enzyme monomer, the partition ratio is the turnover number minus one. Therefore, the partition ratios of 5 and 14 were determined by titrating hOAT with varying equivalents of inactivators (FIG. 21). From this, we determined the partition ratio of 5 to be 4.9 and the partition ratio of 14 to be 0.6. The enlarged ring not only enhances the potency and selectivity against hOAT but also improves the efficiency of the inactivation.
The partition ratio was calculated using previous protocols.^6, 8-9

Series [5] concerns aspartate aminotransferase (Asp-AT). Description: Coupled enzyme assay, inhibition of Asp-AT. The note with it: at high concentrations, up to 20 mM. The series is classed as biochemical. Here is the method: as §1
Series [6] has as its target T1, hOAT. Description: Fluoride ion release on inactivation of hOAT. As to conditions: for F^− Release: enzyme 1.34 μM monomer; for Fluoride ions released per active site: excess of inactivator. The series is classed as biochemical. From the text: Different equivalents of fluoride ions can be released in PLP and PMP turnover pathways. If PMP is formed in the turnover mechanism, it cannot be converted back to PLP in the absence of α-KG, which results in at most two equivalents of fluoride ion released (pathway a); more equivalents of fluoride ion would be released in the presence of α-KG if PMP is formed after the fluoride ion release step (pathway a1). If PLP is regenerated during the turnover mechanism, at least two equivalents of fluoride ions will be released in the absence of α-KG (pathway b), which should be close to the equivalents in the presence of α-KG. Based on the partition ratio and the confirmed inactivation mechanism for 14, the theoretical equivalents of fluoride ions, which are released per enzyme active site in different turnover pathways, can be calculated in the presence/absence of α-KG (Table 3). The concentration of released fluoride ions can be monitored by a fluoride ion-selective electrode. When OAT was inactivated with an excess of 14, 2.95 equivalents of fluoride ions were released in the presence of α-KG and 2.66 equivalents of fluoride ions were released in the absence of α-KG (Table 3).
The fluoride ion release assay was conducted using previous protocols.^2 The final concentration of hOAT in the sample was determined to be 61.7±4.1 ug/mL (monomer, 1.34±0.12 μM) via BSA assay and calculation of dilution. A calibration curve of voltage (V, mV) was generated from varying concentrations of NaF (F, μM) to get the equation: F^−=10^((V−181.4)/−54.21). For accurate detection of fluoride ion concentration, 2.0 μM of fluoride ion was added to each control and sample. The number of fluoride ions released per active site was calculated by the ratio of the fluoride ion release concentration and hOAT concentration.

The subject of series [7] is alanine aminotransferase (Ala-AT). The experiment in a line: Coupled enzyme assay, inhibition of Ala-AT. The series is classed as biochemical. The note with it: at high concentrations, up to 20 mM. On the procedure: as §1
Where [8] appears, read: values marked b from the slope of kobs vs [I], read-out: kinact/KI (converted).

Regarding `N[C@H]1C[C@@H](C(=O)O)CC1=C(F)F` [Compound 5, reference compound], the “return of enzyme activity on dialysis” value at hOAT [1] is on record as “fully irreversible inhibitor”.

In the series “in vivo PK profiles” (IV, 3 mg/kg), `N[C@H]1C=C(C(=O)O)CC1=C(F)F` [Compound 9, reference compound] had an AUCinf of 0.6538 µg·h/mL, an AUClast of 0.63412 µg·h/mL, a C0/Cmax of 2.37608 µg/mL and a CL of 4.589 L/h/kg. In the series “in vivo PK profiles” (IV, 3 mg/kg), this molecule displayed a T1/2 of 30.6 min and a VSS of 1.75 L/kg. Also, in “in vivo PK profiles” (PO, 10 mg/kg), the “% F” value is 42%, the AUCinf stood at 1.0066 µg·h/mL, the AUClast worked out at 0.8812 µg·h/mL and the C0/Cmax stood at 1.57574 µg/mL. Besides, the Tmax in “in vivo PK profiles” (PO, 10 mg/kg) stood at 15 min. Further, the kinact/KI at hOAT [2] (from ref 29) is 127 M⁻¹ s⁻¹. Also, at hOAT [2] (from ref 40), the Ki is 65 ± 10 µM and the kinact/KI is 14.5 M⁻¹ s⁻¹.

`N[C@H]1C[C@@H](C(=O)O)CCC1=C(F)F` [Compound 12, (1S,3S)-3-amino-4-(difluoromethylene)cyclohexane-1-carboxylic acid]: the Ki at GABA-AT worked out at 1310 ± 400 µM; on hOAT [3], 1270 ± 200 µM. Besides, the maximal inactivation rate constant (kinact) on GABA-AT was 0.000417 s⁻¹; on hOAT [3], 0.00193 s⁻¹. Also, the figures for the kinact/KI at GABA-AT (setting [8]) and on hOAT [3] were 0.317 M⁻¹ s⁻¹ and 1.52 M⁻¹ s⁻¹, respectively.

For the molecule `N[C@H]1C[C@H](C(=O)O)CCC1=C(F)F` [Compound 13, (1R,3S)-3-Amino-4-(difluoromethylene)cyclohexane-1-carboxylic acid], on GABA-AT, the Ki is greater than 13100 µM and the maximal inactivation rate constant (kinact) is greater than 0.00317 s⁻¹. Further, on GABA-AT (setting [8]), the kinact/KI is 0.25 M⁻¹ s⁻¹. Moreover, at hOAT [3], the Ki was found to be 1480 ± 210 µM, the kinact is 0.0015 s⁻¹ and the kinact/KI was 1.07 M⁻¹ s⁻¹.

For `N[C@H]1C=C(C(=O)O)CCC1=C(F)F` [Compound 14, (S)-3-Amino-4-(difluoromethylene)cyclohex-1-ene-1-carboxylic acid], in the series “in vivo PK profiles” (in vivo, iv, 10 mg/kg), the AUC(0-inf) turned out to be 2.49 µg·h/mL, the AUC(0-t) was 2.47 µg·h/mL, the clearance stood at 4.01 L/h/kg and the half-life is 9.6 min. Besides, in the series “in vivo PK profiles” (in vivo, iv, 10 mg/kg), the Cmax was 14.8 µg/mL. The Vd in the series “in vivo PK profiles” (in vivo, iv, 10 mg/kg, read-out: VSS) was determined as 0.64 L/kg. Besides, in “in vivo PK profiles” (in vivo, po, 30 mg/kg), the AUC(0-inf) was determined as 4.33 µg·h/mL, the AUC(0-t) came out at 4.26 µg·h/mL, the bioavailability amounted to 58% and the Cmax was determined as 3.43 µg/mL. Besides, the Tmax in “in vivo PK profiles” (in vivo, po, 30 mg/kg, read-out: Tmax) worked out at 15 min. Also, the Kp at 0.25 h in “in vivo PK profiles” (in vivo, IV, 10 mg/kg) was 0.05. For the same molecule, the Kp at 0.25 h in “in vivo PK profiles” (in vivo, PO, 30 mg/kg) worked out at 0.01. Also, the DMPK properties entry in “in vivo PK profiles” (preliminary assessment) was “favorable DMPK properties”. The partition ratio on hOAT [4] is on record as 0.6. The “inhibitory activities against Asp-AT” value in series [5] was “little or no inhibitory activities”. Further, the “return of enzyme activity on dialysis” value at hOAT [1] is listed as “no enzyme activity recovered”. For the same molecule, at GABA-AT, the Ki was greater than 1240 µM and the kinact was greater than 0.006 s⁻¹. In addition, on GABA-AT (read-out: kinact/KI (converted)), the kinact/KI is 4.83 M⁻¹ s⁻¹. The kinact/KI on GABA-AT (values marked b from the slope of kobs vs [I]) is 0.29 ± 0.01^b mM^−1min^−1. On hOAT [6] (with α-KG), the “F^− Release” value turned out to be 3.95 µM and the “Fluoride ions released per active site” value worked out at 2.95 equiv. Also, at hOAT [6] (without α-KG), the “F^− Release” value was 3.57 µM and the “Fluoride ions released per active site” value is reported as 2.66 equiv. Also, at hOAT [3], the Ki stood at 12 ± 2 µM, the kinact is 0.00323 s⁻¹ and the kinact/KI is 270 M⁻¹ s⁻¹. For the same molecule, the “times more efficient/potent as an inactivator of hOAT than the comparator” value on hOAT [3] (versus 10 (b129 prints 7), by kinact/KI) is 18.6. The “inhibitory activities against Ala-AT” value in [7] was “little or no inhibitory activities”.

With `N[C@H]1CC(C(=O)O)=CCC1=C(F)F` [Compound 15, (S)-5-Amino-4-(difluoromethylene)cyclohex-1-ene-1-carboxylic acid], on GABA-AT, the Ki was greater than 2490 µM and the kinact is greater than 0.00367 s⁻¹. Also, the kinact/KI on GABA-AT (setting [8]) is 1.45 M⁻¹ s⁻¹. On hOAT [3], the Ki is 98 ± 14 µM, the kinact is 0.0009 s⁻¹ and the kinact/KI is 9.17 M⁻¹ s⁻¹.

As a reminder, the Tmax is the time from dosing to the highest level. In general, kinact refers to the maximal first-order rate at which the target is inactivated. The term AUC(0-inf) denotes total exposure, with the tail of the curve extrapolated. Low readings indicate less exposure, high ones more exposure. As a reminder, the AUC(0-t) is the area under the concentration-time curve up to a stated or last time point. A lower AUC(0-t) goes with less exposure. Broadly, the clearance is a measure of how efficiently the substance is removed, as volume per time. A low value points to inefficient removal. What is called half-life is the time needed for the level to fall by half in the phase considered. Higher therefore signals slow decline. Broadly, the bioavailability is dose-corrected exposure relative to a reference, in per cent. Read a high bioavailability as good availability.
